The structures appear in SMILES notation.

This note sets out measurements from patent publication US12673918B2, “Small molecule RPN13 inhibitors with antitumor properties” (The Johns Hopkins University, priority 2019, dated 2026).

The test system of one data set is intracellular GSH. The data set is described as follows: Total GSH assay, SKOV3 cells. To be noted: SKOV3, 0.5 μM, 12 hr. The format is cell-based, human. The protocol:
Luciferase and GSH assays: Sub-confluent cultures of cells were transfected with 4Ub-FL or FL plasmid using Lipofectamine 2000 reagent (Life Technologies). Cells were seeded at 10,000 cells/well in 96-wells plate 48 hr post transfection and incubated with compounds or vehicle (DMSO) at the doses and times indicated. Luciferase activity in cell lysate was determined with a luciferase assay kit (Promega) according to the manufacturer's instructions. Bioluminescence was measured by using a Glomax Multidetection system (Promega). Glutathione was assayed using the Promega GSH assay kit (V6611).

Data set [1] relates to proteasome (4UbFL reporter). The data set is described as follows: 4UbFL reporter in leg muscle of BALB/c mice. The class given is in vivo. The conditions noted are these: single i.p. administration to mice. The procedure: FIG. 9B illustrates BALB/c mice electroporated with 4UbFL plasmid (10 μg/mouse) in the leg muscle and the basal luminescence was recorded after 48 hr. Groups of mice (n=5) were treated with different compound (40 mg/Kg) or vehicle alone (25% (w/v) β-Hydroxypropylcyclodextrin in water). Mice were imaged for bioluminiscence activity using IVIS instrument at 4, 24, 48, 72 and 96 hr.
To test for proteasome inhibition by RA375 in vivo, an electroporation delivery was employed to transfect the leg muscle of mice with the 4UbFL reporter plasmid. […] At two days post electroporation of the 4UbFL DNA, mice were imaged, and base line luminescence recorded. […] After 4 h, 24 h, 48 h, 72 h and 96 h post treatment mice were again imaged, and bioluminescence was quantified.
Electroporation Method: A patch of CD1 or Balb/c mouse leg was shaved of hair and 10 μg 4Ub-FL plasmid in 20 μL of PBS was injected into the quadriceps femoralis muscle followed immediately by injection of the 2 Needle Array to 5 mm depth encompassing the injection site and square wave electroporation (ElectroSquarePorator 833, BTX-2 Needle array 5 mm gap, Harvard apparatus) delivered as eight pulses at 106V for 20 ms with 200 ms intervals. […] Equally sized areas were analyzed using Living Image 2.20 software. […]

The subject of the next data set is JHU29. The data set is described as follows: MTT cytotoxicity assay, JHU29. The class given is cell-based. To be noted: Table 3, 48 hr, Head & Neck (HPV −ve). (Tetrazolium assays rely on reduction of a dye to a coloured formazan, in cell work by metabolically active cells.)
In the next data set the test system is VU147T. The data set is described as follows: MTT cytotoxicity assay, VU147T. The format is cell-based. To be noted: Table 3, 48 hr, Head & Neck (HPV +ve).
Data set [2] has as its system proteasome (4UbFL reporter). The data set is described as follows: 4UbFL proteasome reporter, transfected 293T cells. The format is cell-based. The conditions noted are these: 4 hours. From the text: FIG. 9A illustrates 293T cells in 96 well plates transiently transected with the 4UbFL plasmid and 48 hr later treated with the indicated doses of each compound for 4 hr. Cells were lysed and luciferase activity assessed using a luminometer.
To monitor proteasome activity in living cells, a construct was used expressing a fusion protein comprising four tandem repeats of ubiquitin fused in frame with firefly luciferase (4UbFL) (41) to cause this otherwise stable reporter protein to undergo rapid proteolytic degradation via the proteasome. To assess their capacity to inhibit cellular proteasome function, 293T cells were transiently transfected with the 4UbFL construct and then […] treated with compounds for 4 hours prior to assay of luciferase activity. Like bortezomib, RA375 induced a dramatic increase in bioluminescence, consistent with stabilization of 4UbFL, in a dose dependent manner. At very high concentrations the luciferase activity dropped because of cellular toxicity.
Reporter assays: Sub-confluent cultures of cells were transfected with 4Ub-FL or FL plasmid using TransIT 2020 reagent (Minis Bio). […] Luciferase activity in cell lysate was determined with a luciferase assay kit (Promega) according to the manufacturer's instructions. Bioluminescence was measured by using a Glomax Multidetection system (Promega).

For another data set, the system named is SSC90. The conditions noted are these: human.
The test system of the next data set is NF-κB. The data set is described as follows: NF-κB dependent luciferase reporter in 293T cells. The format is cell-based. The conditions noted are these: 293T NF-κB luciferase, drug treatment 7 hr. The source says: FIG. 21C illustrates 293T cells stably expressing NF-κB dependent luciferase gene that show a dose dependent reduction in bioluminescence with drug treatment (7 hr) measured by luminometer.
Activation of NF-κB is regulated by IκB proteins. IκB-α ubiquitination and degradation is an important step for the nuclear localization of NF-kB and activation of its transcriptional program.
In general terms: Reporter assays use an easily measured gene product as a stand-in for the process of interest.

The test system of a further data set is HS578T. The conditions noted are these: human.
Another data set concerns the target RPN13 (Homo sapiens, UniProt Q16186). Kind of data set: RA183B competition / direct biotin labelling of RPN13 in cell lysate. The class given is binding. The conditions noted are these: SKOV3 cell lysate pre-treated with compound, labelled with RA183B. The procedure:
It has been shown preciously that RA183 adducts Cysteine 88 of RPN13 (13). […] Samples were subjected to SDS-PAGE and transferred to a PVDF membrane. The membrane was probed with HRP-Streptavidin antibody, and the blot developed using chemiluminescence.
A direct labelling assay in cell lysate of ES2, a human ovarian cancer-derived cell line, using RA413B and RA183B was performed.
Biotin labeling Assay: Clarified cell lysate in MPER buffer was pretreated with streptavidin magna beads for 45 min at 4° C. to deplete non-specific biotinylated proteins in the cell lysate. The beads were separated and 40 μL of the pre-cleared cell lysate was incubated with compounds (20 μM) for 45 min at 4° C., and then treated with RA183B, RA190B, or RA413SB (10 μM) for 45 min at 4° C. Next, the samples were mixed with Laemmli sample buffer (BioRad) and boiled for 5 min. […] (24 V). The membrane was blocked with 5% BSA in PBST for 1 hr at RT and washed for 20 minutes (3× with PBST). Then the membrane was probed with HRP-streptavidin (1:10,000 in PBST) for 1 hr at RT, washed for 30 min (3× with PBST), and developed using HyGLO chemiluminescent detection reagent (Denville) for biotin detection.

Sequence of RPN13 (Q16186 whole entry): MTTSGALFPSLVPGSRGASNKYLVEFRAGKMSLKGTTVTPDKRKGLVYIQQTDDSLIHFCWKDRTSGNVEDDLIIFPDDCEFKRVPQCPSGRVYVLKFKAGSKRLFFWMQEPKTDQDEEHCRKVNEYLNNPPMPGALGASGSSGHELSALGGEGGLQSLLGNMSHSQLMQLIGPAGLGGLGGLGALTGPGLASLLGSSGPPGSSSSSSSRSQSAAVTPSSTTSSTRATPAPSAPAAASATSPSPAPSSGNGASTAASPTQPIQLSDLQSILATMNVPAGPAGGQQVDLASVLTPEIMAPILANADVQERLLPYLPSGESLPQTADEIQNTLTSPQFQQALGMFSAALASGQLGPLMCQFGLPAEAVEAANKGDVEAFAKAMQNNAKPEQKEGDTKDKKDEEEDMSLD
Description for JHU29: The cytotoxic efficacy of selected compounds was assessed against multiple myeloma (MM) cell lines, as this is a validated clinical target for the licensed proteasome inhibitors.
Cell lines and cytotoxicity assays: All cell lines were obtained from the American Type Culture Collection (ATCC) and cultured in the specified medium supplemented with 10% fetal bovine serum, 100 IU/mL penicillin, and 100 μg/mL streptomycin at 37° C. in a humidified 5% CO2/95% air incubator. […] To assess drug cytotoxicity, cells were seeded at 2,500 cells/well (10,000 cells/well for MM lines) in 100 μL medium in 96-well plate and after 24 treated with compounds for 72 h, incubated according to the manufacturer's protocol with the Thiazolyl Blue Tetrazolium Bromide (Sigma, M2128) and A570 measured using a Benchmark Plus microplate spectrophotometer (BIO-RAD). IC50 data was analyzed by Graphpad Prism software. In the chirality studies the cells were treated with compounds for 48 h, and the cells were incubated and measured via the preceeding protocols.
Description for VU147T: Cell lines and cytotoxicity assays: All cell lines were obtained from the American Type Culture Collection (ATCC) and cultured in the specified medium supplemented with 10% fetal bovine serum, 100 IU/mL penicillin, and 100 μg/mL streptomycin at 37° C. in a humidified 5% CO2/95% air incubator. […] To assess drug cytotoxicity, cells were seeded at 2,500 cells/well (10,000 cells/well for MM lines) in 100 μL medium in 96-well plate and after 24 treated with compounds for 72 h, incubated according to the manufacturer's protocol with the Thiazolyl Blue Tetrazolium Bromide (Sigma, M2128) and A570 measured using a Benchmark Plus microplate spectrophotometer (BIO-RAD). IC50 data was analyzed by Graphpad Prism software.

With `CC(C)C[C@H](NC(=O)[C@H](Cc1ccccc1)NC(=O)c1cnccn1)B(O)O` [Bortezomib, bortezomib, reference compound], the “cellular total GSH levels” value in the data set with intracellular GSH is “profoundly reduced cellular GSH levels”.
Consider `O=C(CCl)N[C@@H](Cc1ccccc1)C(=O)N1C/C(=C\c2ccc([N+](=O)[O-])cc2)C(=O)/C(=C/c2ccc([N+](=O)[O-])cc2)C1` [RA375], for which, in [1], the “duration of proteasome inhibition in muscle” value was greater than 72 h. The compound also registered an IC50 in the data set on JHU29 of 173 nM. This compound also gave an IC50 with VU147T of 40 nM. In addition, in [2], the “fold more potent than RA190 (4UbFL stabilization)” value is 4 fold and the “fold more potent than bortezomib (4UbFL stabilization)” value is given as 2 fold.
For the compound `C[C@H]1/C(=C\c2ccc([N+](=O)[O-])cc2)C(=O)/C(=C/c2ccc([N+](=O)[O-])cc2)CN1C(=O)[C@@H](N)Cc1ccccc1`, the “fold more cytotoxic than RA413R” value in the data set on SKOV3 is given as 4 fold. In addition, the figures for the IC50 in the data set on SSC90 and with HS578T were 125 nM and 40 nM, respectively. Moreover, the “decrease in NF-κB activity, relative potency” value with NF-κB is recorded as “more potent than for RA183”.
Consider `CC1/C(=C\c2ccc([N+](=O)[O-])cc2)C(=O)/C(=C/c2ccc([N+](=O)[O-])cc2)CN1C(=O)[C@H](Cc1ccccc1)NC(=O)CCl` (some centres unmarked) [RA414], for which, at RPN13, the “competition with RA183B binding to RPN13” value is “inhibited by pre-incubation with RA414”.

Broadly, the IC50 is the point on the concentration scale where inhibition reaches its midpoint.
